Assay results from patent US8895745B2, “Bicyclic heterocyclic compounds as FGFR inhibitors” (Astex Therapeutics Limited, priority 2006, dated 2014).
Counter-ions that a name gives are not always drawn.

These compounds were tested on LP-1 cell line (assay: Cell-based pERK ELISA method, LP-1 cells). Details: Homo sapiens, LP-1, read-out: IC50 less than 1 μM or at least 50% inhibition at a concentration of 1 μM, LP-1 pERK ELISA.
With `CCCC(=O)Nc1cccc(-c2cnc3cc(-c4ccc(F)cc4)ccn23)c1` [Example 66, N-{3-[7-(4-Fluoro-phenyl)-imidazo[1,2-a]pyridin-3-yl]-phenyl}-butyramide] the IC50 was < 1 µM. `CCNC(=O)Nc1cccc(-c2cnc3cc(-c4ccc(N(C)C)nc4)ccn23)c1` [Example 80, 1-{3-[7-(6-Dimethylamino-pyridin-3-yl)-imidazo[1,2-a]pyridin-3-yl]-phenyl}-3-ethyl-urea formate salt] was tested, and the IC50 was < 1 µM. In the case of `CCCn1cc(-c2ccn3c(-c4cccc(NC(=O)NCC(F)(F)F)c4)cnc3c2)cn1` [Example 256, 1-{3-[7-(1-Propyl-1H-pyrazol-4-yl)-imidazo[1,2-a]pyridin-3-yl]-phenyl}-3-(2,2,2-trifluoro-ethyl)-urea formate], the IC50 is reported as < 1 µM. With `CCNC(=S)Nc1cccc(-c2cnc3cc(-c4cccc(CN5CCN(C)CC5)c4)ccn23)c1` [Example 29, 1-Ethyl-3-(3-{7-[3-(4-methyl-piperazin-1-ylmethyl)-phenyl]-imidazo[1,2-a]pyridin-3-yl}-phenyl)-thiourea] the IC50 was < 1 µM. `O=C(NCC(F)(F)F)Nc1cccc(-c2cnc3cc(-c4cccc(Cl)c4)ccn23)c1` [Example 278] was tested, and the IC50 was < 1 µM. `CCNC(=O)Nc1cc(-c2cnc3cc(-c4ccc(F)cc4)ccn23)ccc1F` [Example 266, 1-Ethyl-3-{2-fluoro-5-[7-(4-fluoro-phenyl)-imidazo[1,2-a]pyridin-3-yl]-phenyl}-urea] was tested, and the IC50 was < 1 µM. `O=C(NCC(F)(F)F)Nc1cccc(-c2cnc3cc(N4CCOCC4)ccn23)c1` [Example 108, 1-[3-(7-Morpholin-4-yl-imidazo[1,2-a]pyridin-3-yl)-phenyl]-3-(2,2,2-trifluoro-ethyl)-urea hydrochloride salt] was tested, and the IC50 was < 1 µM. For `CCNC(=O)Nc1cccc(-c2cnc3cc(-c4ccnc(OC)c4)ccn23)c1` [Example 45, 1-Ethyl-3-{3-[7-(2-methoxy-pyridin-4-yl)-imidazo[1,2-a]pyridin-3-yl]-phenyl}-urea], the IC50 was < 1 µM. In the case of `CC(C)Oc1cc(NC(=O)NCC(F)(F)F)cc(-c2cnc3cc(-c4ccc(F)cc4)ccn23)c1` [Example 238, 1-{3-[7-(4-Fluoro-phenyl)-imidazo[1,2-a]pyridin-3-yl]-5-isopropoxy-phenyl}-3-(2,2,2-trifluoro-ethyl)-urea], the IC50 is reported as < 1 µM. `CCNC(=O)Nc1cccc(-c2cnc3cc(-c4cccc(CN5CCCCC5)c4)ccn23)c1` [Example 35, 1-Ethyl-3-{3-[7-(3-piperidin-1-ylmethyl-phenyl)-imidazo[1,2-a]pyridin-3-yl]-phenyl}-urea] was tested, and the IC50 was < 1 µM. `O=C(NCC(F)(F)F)Nc1cccc(-c2cnc3cc(-c4cccc(CN5CCOCC5)c4)ccn23)c1` [Example 184, 1-{3-[7-(3-Morpholin-4-ylmethyl-phenyl)-imidazo[1,2-a]pyridin-3-yl]-phenyl}-3-(2,2,2-trifluoro-ethyl)-urea Hydrochloride] was tested, and the IC50 was < 1 µM. For `CC(NC(=O)Nc1cccc(-c2cnc3cc(-c4ccc(F)cc4)ccn23)c1)C(F)(F)F` (stereo not shown) [Example 246, 1-{3-[7-(4-Fluoro-phenyl)-imidazo[1,2-a]pyridin-3-yl]-phenyl}-3-(2,2,2-trifluoro-1-methyl-ethyl)-urea], the IC50 was < 1 µM. For `CCNC(=O)Nc1cccc(-c2cnc3cc(-c4ccc(N5CCCCC5)nc4)ccn23)c1` [Example 58, 1-Ethyl-3-{3-[7-(3,4,5,6-tetrahydro-2H-[1,2′]bipyridinyl-5′-yl)-imidazo[1,2-a]pyridin-3-yl]-phenyl}-urea hydro-chloride salt], the IC50 was < 1 µM. With `CCNC(=O)Nc1cccc(-c2cnc3cc(-c4ccc(CCN5CCOCC5)cc4)ccn23)c1` [Example 56, 1-Ethyl-3-(3-{7-[4-(2-morpholin-4-yl-ethyl)-phenyl]-imidazo[1,2-a]pyridin-3-yl}-phenyl)-urea hydro-chloride salt] the IC50 was < 1 µM. With `O=C(NCC(F)(F)F)Nc1cccc(-n2cnc3cc(-c4ccc(F)cc4)ccc32)c1` [Example 175, 1-{3-[5-(4-Fluoro-phenyl)-benzoimidazol-1-yl]-phenyl}-3-(2,2,2-trifluoro-ethyl)-urea] the IC50 was < 1 µM. `CCNC(=O)Nc1cccc(-n2cnc3cc(-c4ccc(F)cc4)cnc32)c1` [Example 169, 1-Ethyl-3-{3-[6-(4-fluoro-phenyl)-imidazo[4,5-b]pyridin-3-yl]-phenyl}-urea] was tested, and the IC50 was < 1 µM. With `CCOc1ccn2c(-c3cccc(NC(=O)NCC(F)(F)F)c3)cnc2c1` [Example 337, 1-[3-(7-Ethoxy-imidazo[1,2-a]pyridin-3-yl)-phenyl]-3-(2,2,2-trifluoro-ethyl)-urea Formate] the IC50 was < 1 µM. With `Cc1ccn2c(-c3cccc(NC(=O)NCC(F)(F)F)c3)cnc2c1` [Example 225] the IC50 was < 1 µM. For `CC(C)NC(=O)c1cccc(-c2ccn3c(-c4cccc(NC(=O)NCC(F)(F)F)c4)cnc3c2)c1` [Example 267, N-Isopropyl-3-(3-{3-[3-(2,2,2-trifluoro-ethyl)-ureido]-phenyl}-imidazo[1,2-a]pyridin-7-yl)-benzamide], the IC50 was < 1 µM. For `CCNC(=O)Nc1cccc(-c2cnc3cc(-c4ccc(=O)n(C)c4)ccn23)c1` [Example 95, 1-Ethyl-3-{3-[7-(1-methyl-6-oxo-1,6-dihydro-pyridin-3-yl)-imidazo[1,2-a]pyridin-3-yl]-phenyl}-urea], the IC50 was < 1 µM. With `CCNC(=O)Nc1cccc(-c2cnn3cc(-c4cnn(C)c4)cnc23)c1` [Example 135, 1-Ethyl-3-{3-[6-(1-methyl-1H-pyrazol-4-yl)-pyrazolo[1,5-a]pyrimidin-3-yl]-phenyl}-urea] the IC50 was < 1 µM. For `O=C(NCC(F)(F)F)Nc1cccc(-c2cnc3cc(-c4ccc(Cl)cc4)ccn23)c1` [Example 273, 1-{3-[7-(4-Chloro-phenyl)-imidazo[1,2-a]pyridin-3-yl]-phenyl}-3-(2,2,2-trifluoro-ethyl)-urea], the IC50 was < 1 µM. In the case of `CCNC(=O)Nc1cccc(-c2cnc3cc(-c4ccsc4)ccn23)c1` [Example 115, 1-Ethyl-3-[3-(7-thiophen-3-yl-imidazo[1,2-a]pyridine-3-yl)-phenyl]-urea formate salt], the IC50 is reported as < 1 µM. With `O=C(NCCF)Nc1cccc(-c2cnn3cc(-c4ccc(F)cc4)cnc23)c1` [Example 140, 1-(2-Fluoro-ethyl)-3-{3-[6-(4-fluoro-phenyl)-pyrazolo[1,5-a]pyrimidin-3-yl]-phenyl}-urea] the IC50 was < 1 µM. With `COC(=O)Nc1cccc(-c2cnc3cc(-c4ccc(F)cc4)ccn23)c1` [Example 16, {3-[7-(4-Fluoro-phenyl)-imidazo[1,2-a]pyridin-3-yl]-phenyl}-carbamic acid methyl ester formate salt] the IC50 was < 1 µM.

Same assay, conditions: Homo sapiens, LP-1, read-out: LP-1 pERK ELISA (μM)
An IC50 of 0.0157 µM was found for `CSc1nnc(-c2ccn3c(-c4cccc(NC(=O)NCC(F)(F)F)c4)cnc3c2)o1` [Example 354, 1-{3-[7-(5-Methylsulfanyl-[1,3,4]oxadiazol-2-yl)-imidazo[1,2-a]pyridin-3-yl]-phenyl}-3-(2,2,2-trifluoro-ethyl)-urea] in this work. An IC50 of 0.033 µM was found for `Cn1nnc(-c2ccn3c(-c4cccc(NC(=O)NCC(F)(F)F)c4)cnc3c2)n1` [Example 359, 1-{3-[7-(2-Methyl-2H-tetrazol-5-yl)-imidazo[1,2-a]pyridin-3-yl]-phenyl}-3-(2,2,2-trifluoro-ethyl)-urea] in this work. An IC50 of 0.022 µM was found for `Cn1cnc(-c2ccn3c(-c4cccc(NC(=O)NCC(F)(F)F)c4)cnc3c2)c1` [Example 375, 1-{3-[7-(1-Methyl-1H-imidazol-4-yl)-imidazo[1,2-a]pyridin-3-yl]-phenyl}-3-(2,2,2-trifluoro-ethyl)-urea] in this work.
